Assay results as given in patent US10646440B2, “Sanguisorbigenin polymer micelle and preparative methods thereof” (SICHUAN INLU WEITE PHARMACEUTICAL TECHNOLOGY CO., LTD., priority 2016, dated 2020).

Tested on: KM-mice given cyclophosphamide (bone marrow suppression)
Experiment: Pharmacodynamic experiment: cyclophosphamide-induced bone marrow suppression, peripheral blood counts
Format: in vivo
[1] = cyclophosphamide 120 mg/kg i.p. day 1, 2.5 mg/kg for 6 days, blood on day 7, mean ± s

For `CC1CC[C@]2(C(=O)O)CC[C@]3(C)C(=CCC4[C@@]5(C)CCC(O)C(C)(C)C5CC[C@]43C)C2[C@]1(C)O` (stereo partly drawn) [Sanguisorbigenin, 3β,19β-dihydroxyurs-12-en-28-oic acid], the “numbers of NEUT and HGB in peripheral blood compared with model group” value (2.5 mg/kg, P<0.05) was “did not show significant difference”, the “numbers of WBC, RBC, and PLT in peripheral blood compared with model group” value (2.5 mg/kg, P<0.05) was “did not show significant difference” and the “HGB in peripheral blood” value [1] was 45.47 ± 8.39 ^ g/L. The “NEUT in peripheral blood” value [1] was 2.56 ± 0.13 ×10^9, the “PLT in peripheral blood” value [1] was 231.16 ± 15.27 ×10^9 and the “RBC in peripheral blood” value [1] was 3.15 ± 0.19 ×10^12. For the same molecule, the “WBC in peripheral blood” value [1] was 2.79 ± 0.26 ×10^9.
